We go through one compound from ChEMBL document CHEMBL4041469, “The replacement of the 2-methoxy substituent of N-((6,6-diphenyl-1,4-dioxan-2-yl)methyl)-2-(2-methoxyphenoxy)ethan-1-amine improves the selectivity for 5-HT1A receptor over α1-adrenoceptor and D2-like receptor subtypes” (Eur J Med Chem, 2017).

In assay [1] the target is T1, Alpha-1D adrenergic receptor (Homo sapiens, UniProt P25100).
T1 sequence (P25100 whole entry): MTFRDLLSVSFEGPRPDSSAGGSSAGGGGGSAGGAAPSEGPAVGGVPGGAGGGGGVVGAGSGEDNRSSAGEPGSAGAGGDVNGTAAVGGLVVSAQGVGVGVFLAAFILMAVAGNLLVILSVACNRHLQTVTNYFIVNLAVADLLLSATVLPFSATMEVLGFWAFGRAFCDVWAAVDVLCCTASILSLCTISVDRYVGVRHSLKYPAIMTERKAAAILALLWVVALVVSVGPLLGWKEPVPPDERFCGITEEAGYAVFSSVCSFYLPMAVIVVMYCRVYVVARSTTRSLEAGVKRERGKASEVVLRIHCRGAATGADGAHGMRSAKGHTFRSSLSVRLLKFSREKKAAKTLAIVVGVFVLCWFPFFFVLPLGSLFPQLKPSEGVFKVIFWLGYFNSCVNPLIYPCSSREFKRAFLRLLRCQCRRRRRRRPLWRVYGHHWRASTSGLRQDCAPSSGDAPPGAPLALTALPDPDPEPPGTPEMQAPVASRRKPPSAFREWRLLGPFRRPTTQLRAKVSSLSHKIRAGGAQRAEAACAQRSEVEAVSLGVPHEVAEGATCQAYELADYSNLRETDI
The assay is described as follows: Displacement of [3H]prazosin from recombinant human alpha-1d adrenergic receptor expressed in CHO cell membranes after 30 mins by liquid scintillation counting method.

Assay [2] concerns the target T2, 5-hydroxytryptamine receptor 1A (Homo sapiens, UniProt P08908).
T2 sequence (P08908 whole entry): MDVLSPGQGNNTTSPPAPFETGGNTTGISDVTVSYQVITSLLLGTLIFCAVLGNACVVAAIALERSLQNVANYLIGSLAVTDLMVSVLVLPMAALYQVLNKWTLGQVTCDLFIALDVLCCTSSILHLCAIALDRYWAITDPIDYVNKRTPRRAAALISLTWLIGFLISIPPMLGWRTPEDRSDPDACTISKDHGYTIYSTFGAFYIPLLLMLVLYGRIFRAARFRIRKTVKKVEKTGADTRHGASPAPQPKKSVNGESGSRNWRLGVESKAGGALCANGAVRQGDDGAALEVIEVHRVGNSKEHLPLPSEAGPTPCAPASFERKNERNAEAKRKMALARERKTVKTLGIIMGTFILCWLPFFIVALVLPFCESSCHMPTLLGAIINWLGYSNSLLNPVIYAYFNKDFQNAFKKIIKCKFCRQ
The assay is described as follows: Displacement of [3H]8-OH-DPAT from recombinant human 5HT1A receptor expressed in human HeLa cell membranes after 30 mins by liquid scintillation counting method. A general note: In a radioligand displacement assay an active substance lowers the binding of a labelled ligand.

For the next assay, the system named is Mus musculus. The assay is described as follows: Anxiolytic activity in CD-1 mouse assessed as increase in time spent in light area at 30 mg/kg, ip administered 30 mins prior to test in presence of 5HT1A receptor antagonist WAY100135 by light/dark exploration test. Format: functional, organism-based.

Active and inactive are the calls of the source. The calls are words filed in the database; no cut-off is given here.

The Ki is the equilibrium dissociation constant of an inhibitor or competing ligand from its target. As for `COCOc1ccccc1OCCNCC1COCC(c2ccccc2)(c2ccccc2)O1` (racemic), the figures for the Ki in assay [1] and in assay [2] were 79.4 nM and 0.631 nM, respectively. The result in the assay on Mus musculus was inactive.
